# Assay results taken from patent publication US9603900B2, “Use of PACAP for the treatment of viral infections in aquatic organisms” (Centro de Ingenieria Genetica y Biotecnologia, priority 2010, dated 2017).
# Marks after values point to notes of the source that are not given here.
# What was measured:
# IPNV [1] = details: daily baths 0.4 and 0.8 μg/mL for two hours during 20 days; cited from earlier work
# IHNV = assay: Rainbow trout experimentally infected with IHNV; format: in vivo, rainbow trout (O. mykiss); details: amantadine 400/800 μg/L, PACAP 100/200 μg/L or combinations, doses not told apart; untreated infected 26%
# Protocol: The fish were challenged by immersion with 5.9×10^3 pfu/ml virus in 20 L of water with aeration for 1 hour.
# [2] = system: IPNV (strain ATCC VR-299); assay: Rainbow trout experimentally infected with IPNV, treatment by immersion; format: in vivo, rainbow trout (O. mykiss); details: for Increment with respect to initial weight / Final Weight: 45 days post-infection; for Final Weight: initial 1.6 ± 0.4 g; for survival: 45 days, untreated infected 20%
# Protocol: An experiment was conducted to evaluate the effect of administration of PACAP and PACAP-ribavirin combination in rainbow trout experimentally infected with IPNV. Eight experimental groups of 50 fish each at a body weight of 1.6±0.4 g were used. The water temperature was kept at 10-12° C. • Group 1: untreated fish not exposed to the virus • Group 2: untreated fish, exposed to the virus • Group 3: Group treated with ribavirin at a dose of 400 μg/L of water, exposed to the virus • Group 4: Group treated with ribavirin at a dose of 800 μg/L of water, exposed to the virus • Group 5: Group treated with PACAP at a dose of 100 μg/L of water, exposed to the virus • Group 6: Group treated with PACAP at a dose of 200 μg/L of water, exposed to the virus. • Group 7: Group treated with the combination 1 (ribavirina 400 μg/L-PACAP 100 μg/L, exposed to the virus.
# Group 8: Group treated with the combination 2 (ribavirina 800 μg/L-PACAP 200 μg/L exposed to the virus.
# The animals were fed twice a day with an amount equivalent to 3% of the total corporal weight in each tank. […] Fish in Groups 1 and 2 were subjected to the same stress treatment without the antiviral compound or without the PACAP-antiviral combination. The fish in Group 1 received the same procedure with cell culture medium instead of virus. […] Treatments with PACAP or with PACAP-antiviral combination were performed 3 times a week for 20 days. The first treatments were performed 2 h after viral infection. Experimental observations were made during the first 20 days of treatments and 25 days after it concluded. During the experiment (45 days) deaths and abnormal behavior of the fish were monitored.
# [3] = system: IPNV (strain ATCC VR-299); assay: Atlantic salmon experimentally infected with IPNV, treatment by immersion; format: in vivo, Atlantic salmon (Salmo salar); details: for Increment / Final Weight: 45 days post-infection; for Final Weight: initial 1.2 ± 0.3 g; for survival: 45 days, untreated infected 30%
# Protocol: An experiment was conducted to evaluate the effect of the administration of PACAP and PACAP-ribavirin combination for salmon (Salmo salar) experimentally infected with IPNV. Eight experimental groups were performed of 50 fish and a size of 1.2±0.3 g each one and were kept in water at 10-12° C.: • Group 1: untreated fish not exposed to the virus • Group 2: untreated fish, exposed to the virus • Group 3: Group treated with ribavirin at a dose of 400 μg/L of water, exposed to the virus • Group 4: Group treated with ribavirin at a dose of 800 μg/L of water, exposed to the virus • Group 5: Group treated with PACAP at a dose of 100 μg/L of water, exposed to the virus • Group 6: Group treated with PACAP at a dose of 200 μg/L, exposed to the virus • Group 7: Group treated with ribavirin 400 μg/L-PACAP 100 μg/L combination, exposed to the virus • Group 8: Group treated with ribavirin 800 μg/L-PACAP 200 μg/L combination, exposed to the virus.
# The animals were fed twice a day with an amount equivalent to 3% of the total corporal weight in each tank. […] Treatments were performed 3 times a week for 20 days. Experimental observations were made during this period and 25 days after the last treatments. During the 45 days of the experiment deaths and abnormal behavior of the fish were monitored. Fish in Groups 1 and 2 were subjected to the same stress produced by the treatment without the antiviral compound or the combination of PACAP-antiviral. The fish in Group 1 received the same procedure with cell culture medium instead of the virus.
# IPNV [4] = assay: Oysters experimentally infected with IPNV, viral titer in hepatopancreas; format: in vivo, oysters of the species Pecten maximus; details: two weeks after challenge, untreated infected 8.1
# Protocol: Eight experimental groups were performed of 30 adult oysters each one and were kept in 250 L of filtered sea water at 10° C.
# Treatments were performed 3 times a week for 20 days. Oysters were challenged by exposure to 25 L of water containing 10^7 TCID50 mL^−1 in tanks of 80 L. After 6 h the water was replaced at a slow flow of 1 L/min and at 12 h the flow was increased to 3 L/min.
# Two weeks after challenge hepatopancreas samples were taken and determined the viral titer.
# Mx protein coding gene = assay: PACAP38 effect on transcription of Mx protein coding gene in leukocytes (qPCR); format: cell-based, rainbow trout (Oncorhynchus mykiss); details: 48 hours
# From the text: (§1) Juvenile rainbow trout (O. mykiss) was used of approximately 50 grams, VHSV and IPNV free. Fish (n=5) were anesthetized with methanesulfonic acid salt (Sigma, USA) and were removed aseptically, first peripheral blood from the tail vein and then the anterior kidney were isolated from peripheral blood leukocytes from anterior kidney and trout from 5 independently, following the method described by Graham and Secombe (Graham and Secombe ([…]) Immunology 65:293-7).
# (§2) The peripheral blood of each fish was diluted 4 times in half Leibovitz (L-15, Gibco, UK) supplemented with penicillin 100 IU/mL, streptomycin (100 μg/mL), heparin (10 units/mL) and 2% FCS and placed carefully on a Percoll gradient to 51%. The ring of cells corresponding to leukocytes was removed carefully, washed twice in L-15 containing 0.1% FCS.
# (§3) The anterior kidney was passed through a nylon mesh of 100 μm Leibovitz (L-15, Gibco, UK) supplemented with penicillin 100 IU/mL, streptomycin (100 μg/mL), heparin (10 units/mL) and 2% FCS. The resulting cell suspension was diluted 1:4 in the same medium supplemented L-15 and placed carefully on a Percoll gradient to 51%. The ring of cells corresponding to leukocytes was removed carefully, washed twice in L-15 containing 0.1% FCS.
# (§4) The cells were suspended in L-15 with 5% FCS at a concentration of 5×10^6 cells per ml and dispensed in 24-well plates at 1 mL per well. The leukocytes were treated with 3 doses of PACAP38 from Clarias gariepinus obtained by chemical synthesis (10^−10 M, 10^−9 M and 10^−8 M) in duplicate and used as negative control untreated leukocytes dispensed in duplicate.
# (§5) The levels of Mx, IFN and TLR9 were evaluated 48 hours after treatment. In order to do so, total RNA was purified from leukocyte cultures treated with PACAP by the method described by Chomczynski and Sacchi (Chomczynski and Sacchi (1987) Anal. Biochem. 162:156-9).
# (§6) For the synthesis of cDNA it was used a commercial reagent kit uses SuperScript III reverse transcriptase (Invitrogen). Finally, for quantitative PCR reactions (qPCR) was used a mixture of PCR from commercial sources: Power SYBR Green PCR Master Mix (Applied Biosystems). The qPCR results were normalized against a constitutive endogenous constitutive expression gene specifically elongation 1α (EF 1α) and were performed in triplicate. The results were expressed as 2^−ΔCt, where ΔCt is equal to the remainder of the gene Ct value minus the assessed value of Ct normalizer gene EF 1α).
# TLR9 coding gene = assay: PACAP38 effect on transcription of TLR9 coding gene in leukocytes (qPCR); format: cell-based, rainbow trout (Oncorhynchus mykiss); details: 48 hours
# From the text: as §1, §2, §3, §4
# The levels of Mx, IFN and TLR9 were evaluated 48 hours after treatment. […]
# as §6, with “The qPCR results were normalized against a constitutive endogenous constitutive expression gene specifically elongation 1α (EF 1α) and were performed in triplicate.” left out
# IFN γ coding gene = assay: PACAP38 effect on transcription of IFN γ coding gene in leukocytes (qPCR); format: cell-based, rainbow trout (Oncorhynchus mykiss); details: 48 hours
# From the text: as §1, §2, §3, §4, §5, §6
# PAC-1 receptor = PAC-1 receptor expression (qPCR) in head kidney leukocytes treated with poly I:C; format: cell-based, rainbow trout (O. mykiss); details: poly I:C 30 μg/mL, 4, 24 and 48 hours
# Protocol: Juvenile rainbow trout (O. mykiss) was used from 9 to 12 grams and 7 months of age, VHSV and IPNV free. Fish were maintained at 14° C. with water circulation. Food was administered twice a day ad libitum. The virus, VHSV (strain 0771) and IPNV (strain Sp) were propagated in the rainbow trout gonad cell line RTG-2 (Sena and Rio (1975) Infect Immun 11:815-22). Cells were grown in minimal essential medium (MEM, Invitrogen, USA) supplemented with 10% of fetal calf serum (FCS, Invitrogen) containing 100 IU/mL of penicillin and 100 μg/mL of streptomycin. The viruses were inoculated into RTG-2 cells grown in MEM with antibiotics and 2% FCS at 14° C. […] The viral titers were determined in 96-well plates as reported by Reed and Muench (Reed and Muench ([…]) J Hyg 27:280-9). […]
# Finally, total RNA was purified from leukocytes cultures using the method described by Chomczynski and Sacchi (Chomczynski and Sacchi (1987) Anal. Biochem. 162:156-9) to evaluate the expression levels of the PAC-1 receptor on leukocytes untreated and treated with Poly I:C or infected with viruses. […] For quantitative PCR reactions (qPCR) was used a mixture of PCR from commercial sources: Power SYBR Green PCR Master Mix (Applied Biosystems). […] The results were expressed as 2^−ΔCt, where ΔCt is equal to the remainder of the gene Ct value minus the assessed value of Ct normalizer gene (EF 1α).
# VPAC-1 receptor = VPAC-1 receptor expression (qPCR) in anterior kidney leukocytes treated with poly I:C; format: cell-based, rainbow trout (Oncorhynchus mykiss); details: cultured leukocytes, poly I:C, 4, 24 and 48 hours
# [5] = Groups 3, 5, 7: ribavirin 400 μg/L, PACAP 100 μg/L or combination 1
# [6] = Groups 4, 6, 8: ribavirin 800 μg/L, PACAP 200 μg/L or combination 2
# [7] = Groups 3, 5, 7: ribavirin 400 μg/L, PACAP 100 μg/L or both
# [8] = Groups 4, 6, 8: ribavirin 800 μg/L, PACAP 200 μg/L or both
# [9] = head kidney leukocytes, 10^−9 M
compound,measurement,setting,value
"C#Cc1c(C(N)=O)ncn1[C@@H]1O[C@H](CO)[C@@H](O)[C@H]1O [EICAR, 5-ethynyl-1-β-D-ribofuranosylimidazole-carboxamide]",viral load in liver and spleen (RT-PCR),IPNV [1],decrease in viral load
NC12CC3CC(CC(C3)C1)C2 [amantadine],survival,IHNV,46%
NC(=O)c1ncn([C@@H]2O[C@H](CO)[C@@H](O)[C@H]2O)n1 [ribavirin],Increment with respect to initial weight,[2]; [5],137%
same,Final Weight,[2]; [5],3.8 ± 1.1^c g
same,survival,[2]; [5],68%
same,Increment with respect to initial weight,[2]; [6],131%
same,Final Weight,[2]; [6],3.7 ± 1.0^c g
same,survival,[2]; [6],70%
same,day on which appetite was recovered,"[2]; rainbow trout, IPNV, both doses, untreated infected: day 15",13 days
same,day on which signs of disease were detected,"[2]; rainbow trout, IPNV, treatments 3 times a week for 20 days, both doses, untreated infected: day 6",8 days
same,day on which early signs of disease were detected,"[3]; Atlantic salmon, IPNV, both doses, untreated infected: day 6",10 days
same,Increment,[3]; [7],83%
same,Final Weight,[3]; [7],2.2 ± 0.4^c g
same,Increment,[3]; [8],92%
same,Final Weight,[3]; [8],2.3 ± 0.5^c g
same,survival,[3]; high dose: ribavirin 800 μg/L or PACAP 200 μg/L,76%
same,survival,[3]; low dose: ribavirin 400 μg/L or PACAP 100 μg/L,70%
same,IPNV average viral titer in the hepatopancreas,IPNV [4]; [5],5.4^b log10TCID50 g^−1
same,IPNV average viral titer in the hepatopancreas,IPNV [4]; [6],4.3^b log10TCID50 g^−1
PACAP38,Mx protein expression levels relative to negative control,Mx protein coding gene; [9],stimulatory effect
same,Mx protein expression levels relative to negative control,"Mx protein coding gene; peripheral blood leukocytes, 10^−8 M",did not differ
same,Mx protein expression levels relative to negative control,"Mx protein coding gene; peripheral blood leukocytes, 10^−9 M, below levels at 10^−10 M",stimulatory effect
same,Mx protein expression levels relative to negative control,"Mx protein coding gene; peripheral blood leukocytes, 10^−10 M",increase
same,TLR9 expression levels versus negative control,TLR9 coding gene; [9],statistically higher than the negative control
same,TLR9 expression levels,"TLR9 coding gene; peripheral blood leukocytes, 10^−10-10^−8 M, undetectable in unstimulated cultures",detectable levels
same,dose giving the highest TLR9 expression values,TLR9 coding gene; peripheral blood leukocytes,10^−10 M
same,IFN γ expression levels versus control group,"IFN γ coding gene; anterior kidney leukocytes, 10^−9 and 10^−8 M",statistically higher than the control group
same,dose giving the best IFN γ expression results,IFN γ coding gene; anterior kidney leukocytes,10^−9 M
same,IFN γ expression levels,"IFN γ coding gene; peripheral blood leukocytes, 3 doses (10^−10, 10^−9, 10^−8 M), undetectable in non-treated cultures",detectable levels of expression
same,dose giving the highest IFN γ expression level,IFN γ coding gene; peripheral blood leukocytes,10^−9 M
poly I:C,levels of PAC-1 expression relative to EF1α,PAC-1 receptor,over-expressed
same,levels of VPAC-1 expression relative to EF1α,VPAC-1 receptor,over-expressed
